Measured values taken from US20210045385A1, “PYRIDAZINONE-SUBSTITUTED KETOXIMES AS HERBICIDES” (FMC Corporation, priority 2018, published 2021).

Experiments:
Format in all cases: in vivo
[1] = test system: Italian ryegrass (Lolium mutiflorum); experiment: Test C postemergence, visual plant response rating
Method in brief: (§1)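 Compounds in a non-phytotoxic solvent with surfactant were applied as a directed soil spray preemergence or to 2–10 cm, one- to two-leaf plants postemergence, in loam–sand soil. After about 10 d in a greenhouse, injury was visually rated against untreated controls on a 0–100 scale (100 = complete control).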

corn (Zea mays) = experiment: Test C postemergence, visual plant response rating
Method in brief: as §1

[2] = test system: ragweed (common ragweed, Ambrosia artemisiifolia); experiment: Test C postemergence, visual plant response rating
Method in brief: as §1

[3] = test system: foxtail, giant (giant foxtail, Setaria faberi); experiment: Test C postemergence, visual plant response rating
Method in brief: as §1

[4] = test system: pigweed (Amaranthus retroflexus); experiment: Test C postemergence, visual plant response rating
Method in brief: as §1

[5] = test system: blackgrass (Alopecurus myosuroides); experiment: Test C postemergence, visual plant response rating
Method in brief: as §1

kochia (Bassia scoparia) [6] = experiment: Test C postemergence, visual plant response rating
Method in brief: as §1

[7] = test system: galium (catchweed bedstraw, Galium aparine); experiment: Test C postemergence, visual plant response rating
Method in brief: as §1

[8] = test system: barnyardgrass (Echinochloa crus-galli); experiment: Test C postemergence, visual plant response rating
Method in brief: as §1

[9] = test system: wheat (Triticum aestivum); experiment: Test C postemergence, visual plant response rating
Method in brief: as §1

[10] = test system: Italian ryegrass (Lolium mutiflorum); experiment: Test C preemergence, visual plant response rating
Method in brief: as §1

[11] = test system: ragweed (common ragweed, Ambrosia artemisiifolia); experiment: Test C preemergence, visual plant response rating
Method in brief: as §1

[12] = test system: foxtail, giant (giant foxtail, Setaria faberi); experiment: Test C preemergence, visual plant response rating
Method in brief: as §1

[13] = test system: pigweed (Amaranthus retroflexus); experiment: Test C preemergence, visual plant response rating
Method in brief: as §1

kochia (Bassia scoparia) [14] = experiment: Test C preemergence, visual plant response rating
Method in brief: as §1

[15] = test system: barnyardgrass (Echinochloa crus-galli); experiment: Test C preemergence, visual plant response rating
Method in brief: as §1

[16] = test system: sedge umbrella (small-flower umbrella sedge, Cyperus difformis); experiment: Test D flooded paddy test, visual plant response rating; conditions: 250 g ai/ha, scale 0 to 100 (0 no effect, 100 complete control), 13 to 15 d
Method in brief: (§2)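 Plants were grown to the 2-leaf stage, pots flooded to 3 cm above soil, and compound applied directly into the paddy water, with the depth held throughout. After 13 to 15 d in a greenhouse, response was rated visually against untreated controls on a 0–100 scale (0 no effect, 100 complete control).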

[17] = test system: duck salad (Heteranthera limosa); experiment: as above; conditions: 250 g ai/ha, scale 0 to 100 (0 no effect, 100 complete control), 13 to 15 d
Method in brief: as §2

rice (Oryza sativa) = experiment: as above; conditions: 250 g ai/ha, scale 0 to 100 (0 no effect, 100 complete control), 13 to 15 d
Method in brief: as §2

[18] = test system: barnyardgrass (Echinochloa crus-galli); experiment: as above; conditions: 250 g ai/ha, scale 0 to 100 (0 no effect, 100 complete control), 13 to 15 d
Method in brief: as §2

[19] = Test C, postemergence, 125 g ai/ha
[20] = Test C, 31 g ai/ha, 0 is no effect, 100 is complete control

Compound	Ryegrass, Italian plant response rating (0 to 100 scale) ([1]; Postemergence, 31 g ai/ha)	Ryegrass, Italian plant response rating (0 to 100 scale) [1, 19]	Corn plant response rating (0 to 100 scale) (corn (Zea mays); Postemergence, 31 g ai/ha)	Corn plant response rating (0 to 100 scale) (corn (Zea mays); [19])	Ragweed plant response rating (0 to 100 scale) ([2]; Postemergence, 31 g ai/ha)	Ragweed plant response rating (0 to 100 scale) [2, 19]	Foxtail, Giant plant response rating (0 to 100 scale) ([3]; Postemergence, 31 g ai/ha)	Foxtail, Giant plant response rating (0 to 100 scale) [3, 19]	Pigweed plant response rating (0 to 100 scale) ([4]; Postemergence, 31 g ai/ha)	Pigweed plant response rating (0 to 100 scale) [4, 19]	Blackgrass plant response rating (0 to 100 scale) ([5]; Postemergence, 31 g ai/ha)	Blackgrass plant response rating (0 to 100 scale) [5, 19]	Kochia plant response rating (0 to 100 scale) (kochia (Bassia scoparia) [6]; Postemergence, 31 g ai/ha)	Kochia plant response rating (0 to 100 scale) (kochia (Bassia scoparia) [6]; [19])	Galium plant response rating (0 to 100 scale) ([7]; Postemergence, 31 g ai/ha)	Galium plant response rating (0 to 100 scale) [7, 19]	Barnyardgrass plant response rating (0 to 100 scale) ([8]; Postemergence, 31 g ai/ha)	Barnyardgrass plant response rating (0 to 100 scale) [8, 19]	Wheat plant response rating (0 to 100 scale) ([9]; Postemergence, 31 g ai/ha)	Wheat plant response rating (0 to 100 scale) [9, 19]	further results
CO/N=C(/c1cc(C)cc(Cl)c1)c1c(O)c(C)nn(C)c1=O [Compound 173]	80	100	0	20	80	100	30	80	70	90	20	40	60	90	90	100	50	80	0	0	Ryegrass, Italian plant response rating (0 to 100 scale) ([10]; 125 g ai/ha): 100; Ryegrass, Italian plant response rating (0 to 100 scale) [10, 20]: 30; Ragweed plant response rating (0 to 100 scale) ([11]; 125 g ai/ha): 90; Ragweed plant response rating (0 to 100 scale) [11, 20]: 30; Foxtail, Giant plant response rating (0 to 100 scale) ([12]; 125 g ai/ha): 90; Foxtail, Giant plant response rating (0 to 100 scale) [12, 20]: 40; Pigweed plant response rating (0 to 100 scale) ([13]; 125 g ai/ha): 30; Pigweed plant response rating (0 to 100 scale) [13, 20]: 30; Kochia plant response rating (0 to 100 scale) (kochia (Bassia scoparia) [14]; 125 g ai/ha): 80; Kochia plant response rating (0 to 100 scale) (kochia (Bassia scoparia) [14]; [20]): 60; Barnyardgrass plant response rating (0 to 100 scale) ([15]; 125 g ai/ha): 50; Barnyardgrass plant response rating (0 to 100 scale) [15, 20]: 60; Plant response rating, Sedge, Umbrella (Flood) [16]: 0; Plant response rating, Ducksalad (Flood) [17]: 0; Plant response rating, Rice (Flood) (rice (Oryza sativa)): 0; Plant response rating, Barnyardgrass (Flood) [18]: 0
CON=C(c1cc(C)cc(Cl)c1)c1c(O)c(C)nn(C)c1=O [Compound 174]	60	100	10	20	80	90	50	90	60	80	30	40	70	90	100	100	60	90	0	0	Ryegrass, Italian plant response rating (0 to 100 scale) ([10]; 125 g ai/ha): 90; Ryegrass, Italian plant response rating (0 to 100 scale) [10, 20]: 80; Ragweed plant response rating (0 to 100 scale) ([11]; 125 g ai/ha): 90; Ragweed plant response rating (0 to 100 scale) [11, 20]: 60; Foxtail, Giant plant response rating (0 to 100 scale) ([12]; 125 g ai/ha): 90; Foxtail, Giant plant response rating (0 to 100 scale) [12, 20]: 70; Pigweed plant response rating (0 to 100 scale) ([13]; 125 g ai/ha): 70; Pigweed plant response rating (0 to 100 scale) [13, 20]: 20; Kochia plant response rating (0 to 100 scale) (kochia (Bassia scoparia) [14]; 125 g ai/ha): 80; Kochia plant response rating (0 to 100 scale) (kochia (Bassia scoparia) [14]; [20]): 20; Barnyardgrass plant response rating (0 to 100 scale) ([15]; 125 g ai/ha): 90; Barnyardgrass plant response rating (0 to 100 scale) [15, 20]: 70; Plant response rating, Sedge, Umbrella (Flood) [16]: 0; Plant response rating, Ducksalad (Flood) [17]: 0; Plant response rating, Rice (Flood) (rice (Oryza sativa)): 0; Plant response rating, Barnyardgrass (Flood) [18]: 0
